# Laboratory results as given in patent US11834450B2, “Compounds having ((3-nitrophenyl)sulfonyl)acetamide as BCL-2 inhibitors” (Eil Therapeutics, Inc., priority 2021, dated 2023).
# Legend:
# [1] = molecular target: T1, BCL-2 (Homo sapiens, UniProt P10415); assay: BCL-2 TR-FRET Assay (primary PPI inhibition); assay type: binding; conditions: 60 min incubation; read-out: BCL2 (IC50 code, BCL-2 TR-FRET)
# T1 construct: purchased BPS Bioscience #50222
# [2] = molecular target: T2, BCL-XL (Homo sapiens, UniProt Q07817); assay: BCL-XL TR-FRET Assay (primary PPI inhibition); assay type: binding; conditions: 60 min incubation; read-out: BCLxL (IC50 code, BCL-XL TR-FRET)
# T2 construct: purchased BPS Bioscience #50223
# T2 sequence (Q07817 whole entry): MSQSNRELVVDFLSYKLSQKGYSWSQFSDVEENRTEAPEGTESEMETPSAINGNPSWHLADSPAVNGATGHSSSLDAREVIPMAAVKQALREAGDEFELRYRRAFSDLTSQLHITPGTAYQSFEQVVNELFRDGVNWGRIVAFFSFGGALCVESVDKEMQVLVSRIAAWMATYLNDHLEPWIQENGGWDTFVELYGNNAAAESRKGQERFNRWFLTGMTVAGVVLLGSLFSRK
# How it was run: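 TR-FRET readout (ex 340 nm; em 620/665 nm; 60 μs delay, 500 μs integration) after a 60 min incubation. Mix: compound, 10.5 ng BCL-XL, BCL-XL peptide ligand at 1:80, plus anti-His Tb donor and dye acceptor each at 1:100.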
# [3] = test system: RS4-11 cells; assay: Cell viability assay RS4-11 (CellTiter-Glo); assay type: cell-based; conditions: Homo sapiens, 72 h; RS4-11 cells, 3 days, CellTiter-Glo; read-out: RS4-11 (CC50 code)
# How it was run: (§1)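 Cells were seeded at 2000/well (HEK293, in DMEM, pre-incubated a day) or 4000/well (other lines, in RPMI-1640). Serially diluted compound was added and plates incubated 3 days at 37 °C, with viability read by CellTiter-Glo luminescence.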
# [4] = test system: MOLT-4 cells; assay: Cell viability assay MOLT-4 (CellTiter-Glo); assay type: cell-based; conditions: Homo sapiens, 72 h; MOLT-4 cells, 3 days, CellTiter-Glo; read-out: MOLT-4 (CC50 code)
# How it was run: as §1
# [5] = Cell viability assay HEK293 (CellTiter-Glo); assay type: cell-based; conditions: human, HEK293 cells, read-out: HEK293 (CC50 code)
# How it was run: as §1
# [6] = test system: caspase-3 and -7 activities in RS4-11 cells; assay: Cas-3/7 activation (Caspase-Glo 3/7) in RS4-11 cells; assay type: cell-based; conditions: Homo sapiens, 3.5 h at 37° C. and 30 min at r.t., read-out: Cas-3/7 (EC50 code)
# How it was run: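 RS4-11 cells were exposed to graded compound concentrations for 3.5 h at 37° C/5% CO2, then 30 min at room temperature. Caspase-3/7 activity was measured by luminescence after 30 min with a DEVD luminogenic substrate reagent.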
# T1 sequence (P10415 whole entry): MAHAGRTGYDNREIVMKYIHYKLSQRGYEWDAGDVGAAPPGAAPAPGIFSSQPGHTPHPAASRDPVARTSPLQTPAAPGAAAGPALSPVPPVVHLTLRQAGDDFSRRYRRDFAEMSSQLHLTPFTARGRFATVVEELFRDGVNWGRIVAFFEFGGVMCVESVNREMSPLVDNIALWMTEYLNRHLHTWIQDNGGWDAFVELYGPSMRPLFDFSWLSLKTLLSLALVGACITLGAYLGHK
SMILES,IC50 [1] [nM],IC50 [2] [nM],EC50 [6] [nM],CC50 [3] [nM],CC50 [4] [nM],CC50 at 3 days [5] [nM]
"O=C(NS(=O)(=O)c1ccc(NCC2CCOCC2)c([N+](=O)[O-])c1)c1ccc(N2CCC(CN3C(=O)C4(CCCC4)C3c3ccccc3)CC2)cc1Oc1cnc2[nH]ccc2c1 (stereo not drawn) [Compound 2, N-[3-nitro-4-(tetrahydropyran-4-ylmethylamino)phenyl]sulfonyl-4-[4-[(3-oxo-1-phenyl-2-azaspiro[3.4]octan-2-yl)methyl]-1-piperidyl]-2-(1H-pyrrolo[2,3-b]pyridin-5-yloxy)benzamide]",> 50,> 4000,> 250,> 200,> 10000,> 25000
"O=C(NS(=O)(=O)c1ccc(NCC2CCOCC2)c([N+](=O)[O-])c1)c1ccc(N2CCC(CN3Cc4ccccc4CC3c3ccccc3)CC2)cc1Oc1cnc2[nH]ccc2c1 (stereo not drawn) [Compound 41, N-[3-nitro-4-(tetrahydropyran-4-ylmethylamino)phenyl]sulfonyl-4-[4-[(3-phenyl-3,4-dihydro-1H-isoquinolin-2-yl)methyl]-1-piperidyl]-2-(1H-pyrrolo[2,3-b]pyridin-5-yloxy)benzamide]",> 50,> 4000,> 250,> 200,2000 to 10000,> 25000
"CC1=CC[C@@H]2C[C@H]1[C@H](c1ccc(Cl)cc1)N(CC1CCN(c3ccc(C(=O)NS(=O)(=O)c4ccc(NCC5CCOCC5)c([N+](=O)[O-])c4)c(Oc4cnc5[nH]ccc5c4)c3)CC1)C2 [Compound 55, 4-[4-[[(1R,4R, 5R)-4-(4-chlorophenyl)-6-methyl-3-azabicyclo[3.3.1]non-6-en-3-yl]methyl]-1-piperidyl]-N-[3-nitro-4-(tetrahydropyran-4-ylmethylamino)phenyl]sulfonyl-2-(1H-pyrrolo[2,3-b]pyridin-5-yloxy)benzamide]",> 50,> 4000,> 250,> 200,2000 to 10000,> 25000
"CC1(C)CN(CC2CCN(c3ccc(C(=O)NS(=O)(=O)c4ccc(NCC5CCOCC5)c([N+](=O)[O-])c4)c(Oc4cnc5[nH]ccc5c4)c3)CC2)Cc2ccccc21 [Compound 39, 4-[4-[(4,4-dimethyl-1,3-dihydroisoquinolin-2-yl)methyl]-1-piperidyl]-N-[3-nitro-4-(tetrahydropyran-4-ylmethylamino)phenyl]sulfonyl-2-(1H-pyrrolo[2,3-b]pyridin-5-yloxy)benzamide]",> 50,> 4000,> 250,> 200,2000 to 10000,> 25000
"CC(C)C(=O)N1C[C@@H](CN2CCN(c3ccc(C(=O)NS(=O)(=O)c4ccc(NCC5CCOCC5)c([N+](=O)[O-])c4)c(Oc4cnc5[nH]ccc5c4)c3)CC2)[C@H](c2ccc(Cl)cc2)C1 [Compound 58, 4-[4-[[(3R,4R)-4-(4-chlorophenyl)-1-(2-methylpropanoyl)pyrrolidin-3-yl]methyl]piperazin-1-yl]-N-[3-nitro-4-(tetrahydropyran-4-ylmethylamino)phenyl]sulfonyl-2-(1H-pyrrolo[2,3-b]pyridin-5-yloxy)benzamide]",10 to 50,> 4000,> 250,> 200,2000 to 10000,> 25000
"O=C(NS(=O)(=O)c1ccc(NCC2CCOCC2)c([N+](=O)[O-])c1)c1ccc(N2CCN(C[C@@H]3Cc4ccccc4CN3C(=O)C3CCNC3)CC2)cc1Oc1cnc2[nH]ccc2c1 (stereo partly drawn) [Compound 78, N-[3-nitro-4-(tetrahydropyran-4-ylmethylamino)phenyl]sulfonyl-4-[4-[[(3S)-2-(pyrrolidine-3-carbonyl)-3,4-dihydro-1H-isoquinolin-3-yl]methyl]piperazin-1-yl]-2-(1H-pyrrolo[2,3-b]pyridin-5-yloxy)benzamide]",5 to 10,2000 to 4000,> 250,> 200,> 10000,> 25000
"O=C(NS(=O)(=O)c1ccc(NCC2CCOCC2)c([N+](=O)[O-])c1)c1ccc(N2CCN(CC3Cc4cc(Cl)ccc4CN3C(=O)C3CC3)CC2)cc1Oc1cnc2[nH]ccc2c1 (stereo not drawn) [Compound 22, 4-[4-[[6-chloro-2-(cyclopropanecarbonyl)-3,4-dihydro-1H-isoquinolin-3-yl]methyl]piperazin-1-yl]-N-[3-nitro-4-(tetrahydropyran-4-ylmethylamino)phenyl]sulfonyl-2-(1H-pyrrolo[2,3-b]pyridin-5-yloxy)benzamide]",> 50,> 4000,> 250,> 200,2000 to 10000,> 25000

# Continued, in another order:
IC50 [1] [nM],IC50 [2] [nM],EC50 [6] [nM],SMILES,CC50 [3] [nM],CC50 [4] [nM],CC50 at 3 days [5] [nM]
> 50,> 4000,> 250,"O=C(NS(=O)(=O)c1ccc(NCC2CCOCC2)c([N+](=O)[O-])c1)c1ccc(N2CCN(CC(c3ccccc3)c3ccccc3)CC2)cc1Oc1cnc2[nH]ccc2c1 [Compound 4, 4-[4-(2,2-diphenylethyl)piperazin-1-yl]-N-[3-nitro-4-(tetrahydropyran-4-ylmethylamino)phenyl]sulfonyl-2-(1H-pyrrolo[2,3-b]pyridin-5-yloxy)benzamide]",> 200,2000 to 10000,> 25000
> 50,≤ 2000,> 250,"O=C(NS(=O)(=O)c1ccc(NCC2CCOCC2)c([N+](=O)[O-])c1)c1ccc(N2CCN(CC3Cc4ccccc4CN3C(=O)c3cccs3)CC2)cc1Oc1cnc2[nH]ccc2c1 (stereo not drawn) [Compound 6, N-[3-nitro-4-(tetrahydropyran-4-ylmethylamino)phenyl]sulfonyl-2-(1H-pyrrolo[2,3-b]pyridin-5-yloxy)-4-[4-[[2-(thiophene-2-carbonyl)-3,4-dihydro-1H-isoquinolin-3-yl]methyl]piperazin-1-yl]benzamide]",> 200,2000 to 10000,> 25000
< 5,≤ 2000,100 to 250,"CC1(O)CC[C@H](CN2CCN(c3ccc(C(=O)NS(=O)(=O)c4ccc(NCC5CCOCC5)c([N+](=O)[O-])c4)c(Oc4cnc5[nH]ccc5c4)c3)CC2)[C@@H](c2ccc(Cl)cc2)C1 (stereo partly drawn) [Compound 28, 4-[4-[[(1S,2S)-2-(4-chlorophenyl)-4-hydroxy-4-methyl-cyclohexyl]methyl]piperazin-1-yl]-N-[3-nitro-4-(tetrahydropyran-4-ylmethylamino)phenyl]sulfonyl-2-(1H-pyrrolo[2,3-b]pyridin-5-yloxy)benzamide]",100 to 200,2000 to 10000,> 25000
> 50,> 4000,> 250,"O=C(NS(=O)(=O)c1ccc(NCC2CCOCC2)c([N+](=O)[O-])c1)c1ccc(N2CCN(C[C@@H]3Cc4ccccc4CN3C(=O)c3ccc(Cl)s3)CC2)cc1Oc1cnc2[nH]ccc2c1 [Compound 35, 4-[4-[[(3S)-2-(5-chlorothiophene-2-carbonyl)-3,4-dihydro-1H-isoquinolin-3-yl]methyl]piperazin-1-yl]-N-[3-nitro-4-(tetrahydropyran-4-ylmethylamino)phenyl]sulfonyl-2-(1H-pyrrolo[2,3-b]pyridin-5-yloxy)benzamide]",> 200,2000 to 10000,> 25000
> 50,> 4000,> 250,"O=C(NS(=O)(=O)c1ccc(NCC2CCOCC2)c([N+](=O)[O-])c1)c1ccc(N2CCN(CC(O)(c3ccccc3)c3ccc(Cl)cc3)CC2)cc1Oc1cnc2[nH]ccc2c1 (stereo not drawn) [Compound 43, 4-[4-[2-(4-chlorophenyl)-2-hydroxy-2-phenyl-ethyl]piperazin-1-yl]-N-[3-nitro-4-(tetrahydropyran-4-ylmethylamino)phenyl]sulfonyl-2-(1H-pyrrolo[2,3-b]pyridin-5-yloxy)benzamide]",> 200,2000 to 10000,> 25000
> 50,≤ 2000,> 250,"O=C(NS(=O)(=O)c1ccc(NCC2CCOCC2)c([N+](=O)[O-])c1)c1ccc(N2CCN(CC34CC(O)CCC3(c3ccc(Cl)cc3)C4)CC2)cc1Oc1cnc2[nH]ccc2c1 (stereo not drawn) [Compound 80, 4-[4-[[6-(4-chlorophenyl)-3-hydroxy-norcaran-1-yl]methyl]piperazin-1-yl]-N-[3-nitro-4-(tetrahydropyran-4-ylmethylamino)phenyl]sulfonyl-2-(1H-pyrrolo[2,3-b]pyridin-5-yloxy)benzamide]",> 200,> 10000,10000 to 25000
10 to 50,2000 to 4000,100 to 250,"CC1=CC[C@@H](CN2CCN(c3ccc(C(=O)NS(=O)(=O)c4ccc(NCC5CCOCC5)c([N+](=O)[O-])c4)c(Oc4cnc5[nH]ccc5c4)c3)CC2)[C@H](c2ccc(Cl)cc2)C1 [Compound 54, 4-[4-[[(1R,6R)-6-(4-chlorophenyl)-4-methyl-cyclohex-3-en-1-yl]methyl]piperazin-1-yl]-N-[3-nitro-4-(tetrahydropyran-4-ylmethylamino)phenyl]sulfonyl-2-(1H-pyrrolo[2,3-b]pyridin-5-yloxy)benzamide]",100 to 200,2000 to 10000,10000 to 25000
